# In PubChem BioAssay AID1996:
# Conditions: buffer; pH 7.4; 200.0 µM
row,SMILES,solubility kinetic [µg/mL]
1,Clc1ccc(OCCN2CCOCC2)cc1,28.7
2,O=C1CSC(c2ccccc2F)N1c1ccccc1F (stereo not given),3.2
3,Cc1ccc(NC(=S)N2CCN(c3ccccn3)CC2)cc1C,1.1
4,Cc1nc(SCc2ccccc2F)c2oc3ccccc3c2n1,< 0.3
5,COc1ccc(CNC(=O)c2cc(=O)c3cc(C)cc(C)c3o2)cc1,< 0.7
6,Cc1ccc(CNC(=O)COC(=O)C2CC2)cc1,> 37.1
7,CCOc1ccccc1NC(=O)C(=O)NCCC1=CCCCC1,< 0.3
8,COc1ccc(C(C)NC(=O)Cc2cccs2)cc1 (stereo not given),37.1
9,O=C(CCNC(=O)c1ccco1)NCc1ccc(F)cc1,> 43.5
10,CSc1ccccc1NC(=O)c1ccccn1,29.8
11,OCc1cc(-c2ccc(Cl)c(Cl)c2)on1,> 36.6
12,O=c1c2oc3ccccc3c2ncn1Cc1cccc(Cl)c1,< 0.3
13,Cc1csc(NC(=O)c2ccccc2)n1,> 32.7
14,Cc1nc(SC(C)C(=O)NCc2ccc3c(c2)OCO3)nc(C)c1C (stereo not given),> 53.9
15,CN1CCC(C)(O)C2CCCCC21 (stereo not given),> 27.5
16,CCC1(Cc2ccccc2)NC(=O)c2ccccc2O1 (stereo not given),36.5
17,CC(C)(C)n1cnc2cc(NCc3ccccc3O)ccc21,34.5
18,COc1cc(SC)ccc1C(=O)N(Cc1ccccc1)c1ccccn1,> 54.7
19,O=S(=O)(c1ccc(NCc2ccc(F)cc2)nc1)N1CCCC1,3
20,CCOC(=O)C(=CNc1ccc2c(c1)c1ccccc1n2CC)C(=O)OCC,< 0.4
21,O=c1[nH]cc(-c2ccc(Br)cc2)n1Cc1ccccc1,1.6
22,CSc1ccccc1NC(=O)C1CC(c2ccccc2Cl)=NO1 (stereo not given),0.8
23,Clc1ccc(-c2csc(-c3cccnc3)n2)s1,0.7
24,N/C(=N\OC(=O)c1cccs1)c1cccnc1,33.1
25,CCCn1c(=O)c2ccccc2n2c(=S)[nH]nc12,> 39

row,SMILES,solubility kinetic [µg/mL]
1,Cc1cccc(OCC(=O)NCCNC(=O)c2ccccn2)c1,> 47
2,O=C(NCc1ccc2c(c1)OCO2)c1ccc(Br)cc1,3.1
3,O=C(NCc1ccc(Cl)cc1)[C@@H]1CCCN1S(=O)(=O)c1ccc(Cl)cc1,31.3
4,CCOP(=O)(Cc1ccc(C#N)o1)OCC,> 36.5
5,CCC1(c2ccc(F)cc2)NC(=O)NC1=O (stereo not given),28.5
6,NC(=O)c1ccc(C2SCC(=O)N2CCc2ccccc2)cc1 (stereo not given),> 49
7,CCCCNC(=O)C1CCN(c2nc(C)cc(C)n2)CC1,8.9
8,Nc1cc(N2CCCC2)ccc1[N+](=O)[O-],2.8
9,Nc1c(C(=O)N2CCCCCC2)oc2ccccc12,> 38.7
10,O=C(Nc1nccs1)C1(c2ccc(Cl)cc2)CC1,14.2
11,CN(C(=O)c1c[nH]c(=O)cc1C(F)(F)F)c1ccc(Cl)cc1,45.9
12,FC(F)(F)c1ccc(CSc2ccccn2)cc1,1.2
13,CCCN1CCC(NC(=O)Nc2cccc3ccccc23)CC1,> 46.7
14,CCc1ccc(OCC(=O)Nc2ccc3oc(=O)ccc3c2)cc1,1.5
15,Nc1ccccc1SCC(=O)Nc1nccs1,> 39.8
16,CC(=O)Nc1c(-c2ccccc2)nc2cc(C)ccn12,29.4
17,O=C1CN(S(=O)(=O)c2ccccc2C(F)(F)F)CCN1,40.3
18,Cc1cc(NC(=O)/C=C/c2ccccc2)c(C(C)C)cc1O,5.4
19,Cc1cc(OCC(O)CN(C)C(=O)C(C)Oc2ccccc2)ccc1Cl (stereo not given),45.6
20,O=c1c2ccccc2nc(-c2ccccc2F)n1-c1ccccc1,45.5
21,CNC(=O)CCCN1C(=O)c2ccccc2Sc2ncccc21,> 49.1
22,CC(C)C(C)NC(=O)Cn1cnc2c(oc3ccccc32)c1=O (stereo not given),17.3
23,CN(CC(=O)Nc1ccccc1Cl)CC(=O)Nc1cccc2ccccc12,45.3
24,COc1cccc(NC(=O)CN(C)C(=O)C2CC3C=CC2C3)c1 (stereo not given),> 47.2
25,Cc1ccccc1OCC(=O)OCC(=O)Nc1ccc2c(c1)OCO2,14.9

row,SMILES,solubility kinetic [µg/mL]
1,COc1cccc(N=Cc2c(O)n(Cc3ccco3)c(=O)[nH]c2=O)c1,6.1
2,Cc1ccc(OCC(=O)NC(=S)Nc2ccc(Br)cn2)cc1,0.5
3,O=C(CN1C(=O)NC2(CCCC2)C1=O)NCC1CCCO1 (stereo not given),38.5
4,O=C(Nc1ccccc1C(=O)NCCCN1CCOCC1)c1ccccc1,> 55.1
5,COc1ccc(OC)c(NC(=O)COC(=O)CCNc2ccccc2OC)c1,40.8
6,Cc1ccc(-c2csc3ncn(CC(=O)O)c(=O)c23)cc1C,> 47.2
7,O=C(Nc1cnccc1C(F)(F)F)NC1CCCCC1,43.1
8,CCc1sc(C(=O)NCc2ccco2)cc1Br,25.9
9,O=C1Nc2ccccc2O/C1=C\c1c(F)cccc1Cl,0.7
10,COc1ccccc1Nc1nc(Cl)nc(NC(C)(C)C)n1,6.5
11,CCc1cccc(C)c1NS(=O)(=O)Cc1ccccc1,> 43.4
12,COc1cc(/C=C/[N+](=O)[O-])ccc1OC(=O)c1cccnc1,3.7
13,COCc1cc(=O)[nH]c2c1c(-c1ccccc1)nn2C,> 40.4
14,CCCOc1ccc(C(=O)OCCN2CCCCC2)c(O)c1.Cl,49.8
15,O=C(O)c1ccccc1SCc1csc(-c2ccccc2)n1,> 49.1
16,COc1ccccc1NC(=O)COc1ccc2ccccc2c1,2.5
17,O=C(CSc1ncccn1)Nc1cccc2ccccc12,> 44.3
18,Cl.c1ccc2c(c1)CN1CCCC1=N2,> 31.3
19,CCc1ccc(OCC(=O)OC(C)C(=O)NC2CC2)cc1 (stereo not given),> 43.7
20,CC#CC[N+](C)(C)CCCCCCCCCC.[Br-],> 47.8
21,Cc1cccc(NC(=S)N2CCCN(c3ncccc3[N+](=O)[O-])CC2)c1,39.4
22,CN(C)CCNC(=O)C(c1ccccc1)c1ccccc1,37.9
23,N#C/C(=C\c1cccc(Br)c1)C(=O)N1CCCCC1,> 47.9
24,Cc1cnc(CNC(=O)c2ccc3oc(C(C)C)nc3c2)[nH]1,38.2
25,COc1ccc(OC)c(NC(=O)NCCc2cccc(Cl)c2)c1,1.9

row,SMILES,solubility kinetic [µg/mL]
1,S=c1[nH]c2ccccc2n1Cc1ccccc1,4.8
2,COc1ccc(NC(=O)C2CCCN(C(=O)Nc3ccc(OC)cc3)C2)cc1 (stereo not given),7.5
3,O=C(Cc1cccs1)NCc1cccc(Cl)c1,> 39.9
4,Cc1cc(F)ccc1S(=O)(=O)Nc1nc2ccccc2nc1Cl,> 52.8
5,COc1cc(Nc2ncnc(N)n2)cc(OC)c1OC,> 41.6
6,CSc1ncccc1C(=O)NCCc1ccccc1,37.2
7,CC1Cc2ccccc2N1C(=O)COC(=O)c1ccc(O)cc1 (stereo not given),5.1
8,Cc1cccc(-c2noc(CNC(=O)c3ccc4c(c3)OCO4)n2)c1,2.3
9,CC(C)c1nc(Cl)c(C#N)c2c1COC(C)(C)C2,6.6
10,Cc1cc(C(=O)Nc2ccncc2)c(C)o1,> 32.4
11,CSc1ccccc1C(=O)OCC(=O)NCCN1C(=O)CSC1=O,> 55.3
12,CCN(CC)C1=C(Cl)C(=O)C(Cl)C12OCCO2 (stereo not given),> 42
13,CC1=CC(C)(C)N(C(=O)CN2C(=O)CCC2=O)c2ccc(C)cc21,> 49
14,O=C(NC1CCCCC1)c1cc(F)cc2c1OCOC2,28.9
15,Nc1ccccc1C(=O)NC1CCCNC1=O (stereo not given),> 35
16,CCCCNc1nc2cccnc2s1,30.4
17,CC1(C)OC(=O)C(=Cc2ccc[nH]2)C(=O)O1,25.4
18,C/C(=N\NC(=O)c1cccc([N+](=O)[O-])c1)c1cccnc1,> 42.6
19,COC(=O)C1=C(C)NC(=O)NC1c1ccccc1Cl (stereo not given),18.5
20,CC(=O)c1cccc(NC(=O)COc2cc(C)on2)c1,> 41.1
21,O=C(c1cc2ccccc2cc1O)N1CCN(c2ccccn2)CC1,32.9
22,COc1ccccc1C(=O)NCCC(=O)NCc1cccs1,> 47.8
23,O=C(c1ccco1)N1CCN(c2ccc([N+](=O)[O-])cc2Cl)CC1,3.8
24,Oc1ccc(C=NCCc2ccccc2)cc1,> 33.8
25,CCOc1c(N2CCOCC2)c(=O)c1=O,> 31.7

row,SMILES,solubility kinetic [µg/mL]
1,O=C(COC(=O)C1CC2C=CC1C2)Nc1ccc([N+](=O)[O-])cc1 (stereo not given),> 47.4
2,COc1ccc(C2(CNC(=O)c3ccccc3)CCCC2)cc1OC,8.2
3,CC1C(c2ccccc2)N(C)C(c2ccccc2)CC1(O)c1ccc(F)cc1 (stereo not given),5.7
4,O=C(NC1CC1)c1sc2cc(Cl)ccc2c1Cl,1.2
5,CCOc1ccc(N(C)S(=O)(=O)c2cnc[nH]2)cc1,> 42.2
6,O=C(c1cc(-c2ccccc2)nc2ccccc12)N1CCCC1,42
7,O=C(/C=C/c1ccccc1)Nc1cccnc1,> 33.6
8,CCCNC(=S)Nc1ccc(F)cc1F,> 34.5
9,O=C1CN(C(=O)COC(=O)c2ccc(C(F)(F)F)cc2)c2ccccc2N1,2.4
10,CCCCn1c(=O)c(C(C)=O)c(O)c2ccccc21,26.6
11,CCOC(=O)c1sc(NC(=O)CC(C)c2ccccc2)nc1C (stereo not given),< 0.4
12,COc1ccc(Cl)cc1C(=O)NN=C1CCCC1,> 40
13,O=C(CN1c2cccc3cccc(c23)S1(=O)=O)NCCc1ccc(F)cc1,1.9
14,O=C(NC1CCCc2ccccc21)C12CC3CC(CC(O)(C3)C1)C2 (stereo not given),41.4
15,c1ccc2c(c1)CCNC2c1ccncc1 (stereo not given),> 31.5
16,COCCCNC(=S)Nc1cc(C)c(C)cc1C,> 40
17,Fc1ccc(C2CCCN2Cc2nc(Cc3ccccc3F)no2)cc1 (stereo not given),11.6
18,CCC(C)[C@H](NC(=O)N1CCC(C)CC1)C(=O)O (stereo not given in full),> 38.5
19,CCOCCc1c(O)nc(SCC)[nH]c1=O,> 36.6
20,COc1ccc2[nH]cc(C(O)CN3CCN(c4ccccc4F)CC3)c2c1 (stereo not given),> 55.4
21,CNC(=S)N1C2CCCC1CC(NC(=O)c1ccc(F)cc1)C2 (stereo not given),21.8
22,CCNC(=O)COc1cc(C)c(Br)c(C)c1,> 42.9
23,Cn1cc(C(O)CN2CCCCC2)c2ccccc21 (stereo not given),38.1
24,O=C1CCCC(=O)N1c1ccc(NCCOCCO)c([N+](=O)[O-])c1,> 50.6
25,Cc1ccc(N2C(=O)N(CC(=O)Nc3ccc([N+](=O)[O-])cc3)C(=O)C2C)cc1 (stereo not given),6
